Read-outs that look alike come from different tables or passages of the source. Marks after values point to notes of the source that are not given here.
Columns and labels:
[1] = test system: ACE-1; experiment: ACE-1 protein and mRNA in rat lung tissue; type: in vivo; conditions: exercised rats
Excerpt: (§1) After a week of the adaptation period, the rats were divided into eight equal groups containing seven rats each. The initial body weights of the rats were similar in all the groups (214.53 grams ± 4.67; P > 0.05).
(§2) Groups 1 and 2 were not subjected to an exercise routine. Groups 3-8 were subjected to an exercise regimen consisting of a week training period with an incremental exercise capacity described below. After the week training period the exercise regimen followed was each rat in Groups 3-8 were subjected to 6 weeks of running at 25 m/min during 45 min […]. […] These correspond to 0, 250, 500, 1000, 2000 and 4000 mg per day for humans, respectively.
To determine the protein accumulation in the liver, muscle and lung samples, a Western Blotting test was used. Each of the tissue samples of the same group were pooled, homogenized, and sonicated in lysis buffer supplemented with 1X protease and phosphatase inhibitor cocktail (#5872, Cell Signaling). Total protein content was detected with Qubit 2.0 Fluorometer according to the manufacturer’s protocol (Invitrogen, Life Technologies Corporation, Carlsbad, CA, USA). […] Protein levels were analyzed densitometrically using an image analysis system (Image J; National Institute of Health, Bethesda, MD, USA), corrected with values determined on β-actin blots and expressed as relative values compared with the control group. […]

[2] = test system: Furin; experiment: Furin mRNA expression in Calu-3, RT real-time PCR; type: cell-based, human; conditions: Calu-3, 50 to 1,000 uM, 24 hr pre-treatment
[3] = test system: ACE-2; type: in vivo, rat
Procedure: Groups 1 and 2 were not subjected to an exercise routine. Groups 3-8 were subjected to an exercise regimen consisting of a week training period with an incremental exercise capacity described below. After the week training period the exercise regimen followed was each rat in Groups 3-8 were subjected to 6 weeks of running at 25 m/min during 45 min every day. […] These correspond to 0, 250, 500, 1000, 2000 and 4000 mg per day for humans, respectively.
After the 6-week exercise regimen was completed, muscle, lung, plasma and liver tissue samples were taken from these rats. The ACE-2 analysis of the tissue samples are subjected to the following test.
To determine the protein accumulation in the liver, muscle and lung samples, a Western Blotting test was used. Each of the tissue samples of the same group were pooled, homogenized, and sonicated in lysis buffer supplemented with 1X protease and phosphatase inhibitor cocktail (#5872, Cell Signaling). Total protein content was detected with Qubit 2.0 Fluorometer according to the manufacturer’s protocol (Invitrogen, Life Technologies Corporation, Carlsbad, CA, USA). Equal amounts of protein (20 µg) were size-fractionated using any-kD Mini-Protean TGX gel electrophoresis and then transferred to a nitrocellulose membrane using the Trans-Blot Turbo Transfer System (Bio-Rad, Life Sciences Research). Thereafter, membranes were blocked in 5% nonfat milk in Tris-buffered saline (TBS) containing 0.1% Tween (TBS-T; blocking solution) for 1 h at room temperature, washed in TBS-T, and incubated overnight with ACE-2 (Abcam, Cambridge, UK). The following day, membranes were washed with TBS-T and then incubated with horseradish peroxidase-conjugated goat anti-rabbit (Abcam, Cambridge, UK) or goat anti-mouse (Abcam, Cambridge, UK) secondary antibody (diluted 1:1000) for 1 h. Individual blots were performed at least three times. Protein loading was controlled by stripping and re-probing the nitrocellulose membrane with an anti-β-actin antibody (Abcam, Cambridge, UK). Protein levels were analyzed densitometrically using an image analysis system (Image J; National Institute of Health, Bethesda, MD, USA), corrected with values determined on β-actin blots and expressed as relative values compared with the control group.
To determine the mRNA expression levels of ACE-2 in the liver, lung and muscle samples a total RNA extraction and specific mRNA quantification was conducted by reverse transcription-polymerase chain reaction (RT-qPCR). Gene expressions were done by quantitative polymerase chain reaction (qPCR). […]

[4] = test system: ACE-2; experiment: ACE-2 mRNA expression in Calu-3, RT real-time PCR; type: cell-based, human; conditions: Calu-3, 50 to 1,000 uM, 24 hr pre-treatment
Procedure: To quantify the human gene expression, Calu-3 seeded in a 12-well plate (220,000 cells) were stimulated with 100 uM, 500 uM and 1000 uM Carnitine alone for 24 h. RNA was extracted using TRIzol (Qiagen) as per standard protocol and total RNA was reverse transcribed using SuperScript II RT (Invitrogen). Expression levels of ACE-2 and TMPRSS2 were evaluated by SYBR real-time PCR using gene-specific primers as previously reported (Ma et al., Eye 2020;34:1212). GAPDH was used as an internal normalizer. […] Fold change in expression relative to that in untreated cells was determined using the standard ddCt method.

[5] = test system: malondialdehyde; experiment: Antioxidant capacity: malondialdehyde in exercised rats; type: in vivo, rat; conditions: 6 weeks
Procedure: Fifty-six (56) Male Wistar rats that were 8-week old were obtained. The rats were reared at the temperature of 22 ± 2° C., the humidity of 55 ± 5%, and with a 12-hrs light-12-hrs dark cycle. All procedures involving rats were conducted in strict compliance with the relevant laws, the Animal Welfare Act, Public Health Services Policy, and guidelines established by the Institutional Animal Care and Use Committee of the Institute of the contracted University which completed the study.
as §1, §2
The exercised rats were subjected to treadmill exercise on a motorized rodent treadmill (Commat Limited, Ankara, Turkey). The treadmill contained a stimulus grid at the back end of the treadmill giving an electric shock when the animal placed its paw on the grid. […] To eliminate the diurnal variations, all exercise tests were applied during the same time of the day. The week of training period was provided as pre-training practice for the animals to get familiar with the treadmill equipment and handling. In doing so, the rats in the exercise training groups were accustomed by treadmill exercise over 5 days such that: (i) 1st day, 10 m/min for 10 min, (ii) 2nd day, 20 m/min for 10 min, (iii) 3rd day, 25 m/min for 10 min, (iv) 4th day, 25 m/min for 20 min and (v) 5th day, 25 m/min for 30 min. After the training period, the rats in treadmill exercise groups ran on the treadmill 25 m/min for 45 min/ per day and five days per week for 6 weeks according to the protocol described by Sahin et al. Capsaicinoids Improve the Consequences of Physical Activity. Toxicol Rep. 2018;5:598-607, which is hereby incorporated by reference.
The exercise regimen was used to induce an inflammation and oxidative stress conditions. […] The results of malondialdehyde, superoxide dismutase, catalase, and glutathione peroxidase for each rat group are shown in TABLE 2.

With `C[N+](C)(C)C[C@H](O)CC(=O)[O-]` [L-carnitine] the “ACE-1 mRNA levels” value ([1]; compared to the exercise control, without reaching the control levels) was “increased”, the ACE-1 protein levels ([1]; lung, FIG. 6A, significantly lower than the baseline control levels) was “increase” and the Furin expression levels [2] was “did not show any effect”. For the same molecule, the “dose of maximum effect on ACE-2, TMPRSS2 and Furin levels” value ([3]; exercised rats, oral, 6 weeks) was 200 mg/kg, the “ACE-2 mRNA levels” value ([3]; exercised rats, tissues, versus exercise control) was “dose-dependent decrease” and the ACE-2 protein level ([3]; exercised rats, western blotting) was “return to the baseline control”. The ACE-2 levels ([3]; rats without exercise (inflammation), 200 mg/kg) was “does not affect these receptors”, the “ACE-2 mRNA levels” value [4] was “statistically significant downregulation” and the MDA ([5]; Car200: 200 mg/kg oral gavage, no exercise) was 0.693±0.021^b µmol/L. For the same molecule, the MDA ([5]; Ex+Car25: exercise, 25 mg/kg oral gavage) was 0.599±0.021^c µmol/L, the MDA ([5]; Ex+Car50: exercise, 50 mg/kg oral gavage) was 0.549±0.014^cd µmol/L and the MDA ([5]; Ex+Car100: exercise, 100 mg/kg oral gavage) was 0.553±0.018^cd µmol/L. For the same molecule, the MDA ([5]; Ex+Car200: exercise, 200 mg/kg oral gavage) was 0.489±0.019^de µmol/L and the MDA ([5]; Ex+Car400: exercise, 400 mg/kg oral gavage) was 0.419±0.009^e µmol/L.

— US20230346735A1, “Nutritional Composition Comprising Carnitine and Method for Treating or Preventing an Infection in a Mammal” (priority 2020, published 2023)
